Test results from patent US12357598B2, “Treatment of neurodevelopmental disorders” (THE REGENTS OF THE UNIVERSITY OF CALIFORNIA, priority 2018, dated 2025).

Target: T1, sEH (Homo sapiens, UniProt P34913)
T1 sequence (P34913 1-555): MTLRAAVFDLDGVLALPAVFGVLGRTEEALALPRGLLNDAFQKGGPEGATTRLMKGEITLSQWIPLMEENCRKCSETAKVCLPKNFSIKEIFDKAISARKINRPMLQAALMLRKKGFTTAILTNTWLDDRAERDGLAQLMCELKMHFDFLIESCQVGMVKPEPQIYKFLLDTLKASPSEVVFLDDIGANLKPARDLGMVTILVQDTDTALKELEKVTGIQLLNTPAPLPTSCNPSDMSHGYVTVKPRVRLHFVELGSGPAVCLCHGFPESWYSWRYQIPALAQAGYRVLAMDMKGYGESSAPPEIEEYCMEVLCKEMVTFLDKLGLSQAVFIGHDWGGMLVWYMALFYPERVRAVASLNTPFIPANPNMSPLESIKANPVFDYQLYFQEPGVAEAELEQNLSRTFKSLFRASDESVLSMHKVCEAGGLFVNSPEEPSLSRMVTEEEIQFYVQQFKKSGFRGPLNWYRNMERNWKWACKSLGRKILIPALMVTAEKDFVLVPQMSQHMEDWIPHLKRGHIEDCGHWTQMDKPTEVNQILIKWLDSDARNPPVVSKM
Test: Testing of ureas and lipid alkoxides as sEH inhibitors
Type: biochemical
Description: (Both the 1- and the 2-adamantyl ureas have been tested and have about the same high activity as an inhibitor of sEH. Thus, isomers of adamantyl dodecyl urea are preferred inhibitors. It is further expected that N, N′-dodecyl-cyclohexyl urea (DCU), and other inhibitors of sEH, and particularly dodecanoic acid ester derivatives of urea, are suitable for use in the methods. Preferred inhibitors include without limitation:
U.S. Pat. No. 5,955,496 (the '496 patent) also sets forth a number of sEH inhibitors which can be used in the methods. One category of these inhibitors comprises inhibitors that mimic the substrate for the enzyme. The lipid alkoxides (e.g., the 9-methoxide of stearic acid) are an exemplar of this group of inhibitors.

activity as an inhibitor of sEH: particularly high activity
SMILES: CCCCCCCCCCCCNC(=O)NC12CC3CC(CC(C3)C1)C2 [ADU, N-Adamantyl-N′-dodecyl urea]
